Results as given in patent US20160375439A1, “Apparatus and Methods for Single-Particle Isolation and Single-Particle Measurement” (priority 2015, published 2016).
Values joined by “and” are separate entries in the source; they are usually repeats but may differ in a detail not shown here. Equal values may be shown once. “Also recorded” adds a separate entry of the source. Read-outs that look alike come from different tables or passages of the source.

Assays:
22Rv1 cells [1] = type: cell-based, human; conditions: for a2 (pre-exponential factor, normalized fluorescence plateau) / b2: same single cell
Source text: We previously reported that a mono-exponential drug uptake model could be applied to fit the experimental data in order to compare drug accumulation kinetics in MDR cells.^45 The following equation was used to describe the time-dependent change of single-cell DNR accumulation:
where x is time; y is the normalized fluorescence signal obtained by dividing the intracellular concentrations by the extracellular DNR concentrations; a is the y-axis value that will reach when the time x is sufficiently large (this value is called pre-exponential factor that is related to the cell permeability coefficient p of drug uptake and the pump rate k for drug efflux); b, which is the half time when y reaches 50% of a, is given by
The curve fitting analysis was performed on the normalized fluorescence using the SAS software. […] Because of the initially large drug concentration gradient across the cell membrane, the initial cellular accumulation rate of drugs is very fast,^65 and this fast rate is shown as a short half time of ˜106 s in FIG. 13a. When the concentration gradient became smaller, the drug uptake rate became slower; ultimately, the signal reached a plateau as the drug uptake rate was close to the drug efflux rate. In the presence of FTC, drug accumulation increased (FIG. 13b). This significant drug enhancement is believed to be caused by the action of FTC on the ABCG2 drug efflux pump.
In a similar manner, an experiment was conducted by treating a 22Rv1 cell by 3 μM of OG-PTX, followed by OG-PTX-loaded FTC40 of μM, as shown in FIGS. 13c and 13d.

22Rv1 cells [2] = type: cell-based, human
Protocol: (§1) The procedure for drug accumulation measurement has previously been reported.^45-47 Briefly, the anti-cancer drug (i.e., DNR or OG-PTX) was introduced via Reservoir D and drug accumulation of the anti-cancer drug was measured in the single cell. […] DNR was first used for drug accumulation measurement as it had inherent fluorescence (λex=470 nm; λem=585 nm). Thereafter, paclitaxel that was fluorescently labelled by Oregon Green was examined (λex=492 nm; λem=524 nm), since paclitaxel was the commonly-used anti-cancer drug for prostate cancer treatment.
As shown in FIG. 11a (solid line), the fluorescence signal of the DNR was 630±77. After adding different concentrations of FTC, the signals were enhanced. Similar experiments were performed by adding different concentrations of OG-PTX (FIG. 11a: dashed line). Therefore, the optimal fluorescence signals were obtained after treating the single cells with both anti-cancer drugs in the presence of 40 μM of FTC.
Obvious enhancement in fluorescent intensity (at 585 nm) was observed (i.e., 2.8±0.3, 4.4±0.5, 4.9±0.5 fold-increase (p<0.0001). After washing the cell, anti-P-gp was applied. The fluorescence signal (524 nm) increased from 265±70 to 615±72 cps, confirming that the PCa cell was cancerous.
One of the key requirements for the effectiveness of chemotherapy is the sufficient delivery of chemotherapeutic drug into the cancer cell.^66-69 As mentioned, drug resistance due to MDR activity is due to the function of ABC transporters that reduce intracellular drug accumulation. […] Similar results were obtained after applying OG-PTX in the presence of same MDR inhibitors (FIG. 15a: black solid line & FIG. 15b: gray solid line) (3.0±0.2, 3.1±0.2, 3.1±0.2, and 2.9±0.2, 2.9±0.2, 3.0±0.2 of fold-increase, respectively). […] On the other hand, after accumulation of DNR in the presence of MDR inhibitors, DNR was more effectively retained in MDR cells following removal of MDR inhibitors, particularly FTC from single MDR-treated cell (FIG. 14b: black dashed line).

22Rv1 cells [3] = test: On-chip drug accumulation measurement (fluorescence) of anti-cancer drug alone in a single 22Rv1 cell; type: cell-based, human; conditions: for corrected signal of OG-PTX / corrected signal of DNR (Fi): single 22Rv1 cell; for corrected signal of OG-PTX: FIG. 8b; for corrected signal of DNR (Fi): FIG. 8a
Source text: After the cell was kept stationary, the medium was introduced into Reservoir D to induce a liquid flow to make sure the cell was stationary before running the drug accumulation experiment. An optical detection system was employed for simultaneous fluorescence measurement and bright-field imaging.^47,58
as §1
Drug accumulation was conducted in Chamber 2. In the first step, accumulation of the anti-cancer drug (i.e., DNR or OG-PTX) in the MDR single cell was measured in the absence of MDR inhibitor (FIG. 7a). The 22Rv1 cells naturally express the ABCG2 transporter, which actively transports drug molecules out of the cell.^50 As DNR is a well-known ABCG2 substrate,^51 the initial accumulation of DNR without the influence of any MDR inhibitor was low. […] When the cell was inside the window, the total fluorescent intensity (Ft) was measured; whereas the background (Fb) was measured when the cell was outside the window.^58, 59 Subtraction of the background (Fb) from the total fluorescent intensity (Ft) gave a corrected signal (Fi) representing the drug concentration inside the single prostate cancer cell.^45, 59
The experiment was continued using DNR at different concentrations (3.5, 7, 14, 35, 70, 350 μM) in order to determine the reasonable initial signal of drug accumulation in the cell. […] The signal obtained from DNR at 35 μM provided the optimal initial value. Similarly, other experiments were conducted on a single 22Rv1 cell by treating the cell with OG-PTX at different concentrations (0.3, 1.5, 3, 6, 30 μM). […] Therefore, the optimal fluorescence signal was obtained after treating the single cell with 3 μM of OG-PTX. After the optimization experiment for drug concentration, subsequent experiments were carried out with 35 μM of DNR or 3 μM of OG-PTX. […] A similar experiment was conducted on another single 22Rv1 cell by adding 3 μM of OG-PTX, indicating saturation in the fluorescent intensity (FIG. 8d).

22Rv1 cells [4] = test: Effect of MDR inhibitors on DNR accumulation in single 22Rv1 cell; type: cell-based, human
22Rv1 cells [5] = conditions: 22Rv1 cells treated by FTC (25 μM); cited from earlier work
leukemia cells = conditions: simultaneous administration of verapamil & CsA and MK-571; cited from earlier work
WBC [6] = test: Single-cell DNR accumulation in white blood cell (WBC); type: cell-based, mouse; conditions: 35 μM DNR alone, FIG. 12c
Protocol: as §1
On the other hand, in a similar experiment conducted on the WBC (FIG. 12c), the cell was not stained by the anti-Pgp antibody, indicating it is not a PCa cell.

22Rv1 cells [7] = test: Trypan blue treatment of single 22Rv1 cell (cell viability); type: cell-based, human
Source text: This dye was used to check if the cell membrane was compromised after the exposure to the various conditions, as a measure of cell viability.

WBC [8] = test: Trypan blue treatment of WBC; type: cell-based, mouse; conditions: after high DNR accumulation, FIG. 12 f3
[9] = Step 2: 3 μM OG-PTX + 40 μM FTC

Oregon Green® 488-conjugated paclitaxel [OG-PTX]
half-time to reach plateau (22Rv1 cells [1]; 3 μM OG-PTX only, FIG. 13c): 98 s | a1 (pre-exponential factor, normalized fluorescence plateau) (22Rv1 cells [1]; Step 1: 3 μM OG-PTX only): 1.0±0.1 | b1 (22Rv1 cells [1]; Step 1: 3 μM OG-PTX only): 0.007 ± 0.006 s⁻¹ | fold-increase in fluorescent intensity (at 585 nm), OG-PTX accumulation (22Rv1 cells [2]; single 22Rv1 cell isolated from WBCs, successive MDR inhibitor treatments not given, FIG. 12b): 2.8±0.3 fold and 4.4±0.5 fold and 4.9±0.5 fold | corrected signal of OG-PTX (22Rv1 cells [3]; 0.3 μM OG-PTX): 60±48 cps | corrected signal of OG-PTX (22Rv1 cells [3]; 1.5 μM OG-PTX): 100±52 cps | fold-increase in OG-PTX accumulation (22Rv1 cells [3]; 3 μM OG-PTX alone for 4000 s (negative control), three successive values, FIG. 15a dotted line): 1.1±0.1 fold and 1.2±0.1 fold | corrected signal of OG-PTX (22Rv1 cells [3]; 3 μM OG-PTX): 510±88 cps and 500±55 cps | corrected signal of OG-PTX (22Rv1 cells [3]; 6 μM OG-PTX): 1300±56 cps | corrected signal of OG-PTX (22Rv1 cells [3]; 30 μM OG-PTX): 2900±72 cps

COc1ccc2c3c([nH]c2c1)[C@H](C=C(C)C)N1C(=O)[C@@H]2CCCN2C(=O)[C@@H]1C3 [FTC, fumitremorgin C]
half-time to reach plateau (22Rv1 cells [1]; 3 μM OG-PTX + 40 μM FTC, FIG. 13d): 24 s | half time to reach the plateau (22Rv1 cells [1]; 35 μM DNR + 40 μM FTC, FIG. 13b): 346 s | a2 (pre-exponential factor, normalized fluorescence plateau) (22Rv1 cells [1]; [9]): 2.4±0.4 | b2 (22Rv1 cells [1]; [9]): 0.003 ± 0.008 s⁻¹ | a2 (pre-exponential factor, normalized fluorescence plateau) (22Rv1 cells [1]; Step 2: 35 μM DNR + 40 μM FTC): 3.4±0.2 | b2 (22Rv1 cells [1]; Step 2: 35 μM DNR + 40 μM FTC): 0.004 ± 0.002 s⁻¹ | fold-increase for DNR accumulation, based on curve fitting (22Rv1 cells [4]; 35 μM DNR + 40 μM FTC, FIG. 13): 3.4±0.2 fold | fold-increase in DNR accumulation (22Rv1 cells [4]; 35 μM DNR + 40 μM FTC, after 1000 s of adding inhibitor, three successive values, FIG. 14a solid line): ~3.7±0.2 fold and ~3.8±0.2 fold | fold-increase in DNR accumulation after removing inhibitor (22Rv1 cells [4]; 35 μM DNR, FTC removed after 2000 s, three successive values, FIG. 14a dashed line): 3.8±0.2 fold and 3.2±0.2 fold and 2.7±0.2 fold | fold-increase in DNR accumulation signal (22Rv1 cells [4]; 35 μM DNR, after adding 40 μM FTC, FIG. 9a top curve): 3.5±0.3 fold | fold-increase in DNR accumulation, average of 6 individual cell experiments (22Rv1 cells [4]; FTC, followed by CsA, then FTC+CsA on the same cell, FIG. 14c): 3.7±0.4 fold | MDR inhibitor concentration giving the optimal fluorescence signal (22Rv1 cells [4]; single 22Rv1 cell, DNR and OG-PTX accumulation, FIG. 11): 40 µM | fold accumulation of D-luciferin (22Rv1 cells [5]): 2.0 fold | fold-increase for OG-PTX accumulation, based on curve fitting (22Rv1 cells [2]; 3 μM OG-PTX + 40 μM FTC, FIG. 13): 2.4±0.4 fold | fold-increase in OG-PTX accumulation (22Rv1 cells [2]; 3 μM OG-PTX + 40 μM FTC, three successive values, FIG. 15a solid line): 3.0±0.2 fold and 3.1±0.2 fold | fold-increase in OG-PTX accumulation after removing inhibitor (22Rv1 cells [2]; 3 μM OG-PTX, FTC removed, three successive values, FIG. 15a dashed line): 2.7±0.2 fold and 1.65±0.2 fold and 1.4±0.2 fold | fold-increase in OG-PTX accumulation, average of 6 individual cell experiments (22Rv1 cells [2]; FTC, followed by CsA, then FTC+CsA on the same cell, FIG. 15c): 2.7±0.3 fold

CN(C)C(=O)CCSC(SCCC(=O)O)c1cccc(/C=C/c2ccc3ccc(Cl)cc3n2)c1 (stereo not shown) [MK-571]
intracellular levels of [3H]-azacytidine (leukemia cells): increase

COc1cccc2c1C(=O)c1c(O)c3c(c(O)c1C2=O)C[C@@](O)(C(C)=O)C[C@@H]3O[C@H]1C[C@H](N)[C@H](O)[C@H](C)O1 [DNR, Daunorubicin]
half time to reach the plateau (22Rv1 cells [1]; 35 μM DNR only, FIG. 13a): ~106 s | a1 (pre-exponential factor, normalized fluorescence plateau) (22Rv1 cells [1]; Step 1: 35 μM DNR only): 1.0±0.3 | b1 (22Rv1 cells [1]; Step 1: 35 μM DNR only): 0.010 ± 0.003 s⁻¹ | fold-increase in fluorescent intensity (at 585 nm), DNR accumulation (22Rv1 cells [4]; single 22Rv1 cell isolated from WBCs, successive MDR inhibitor treatments not given, FIG. 12a): 3.3±0.3 fold and 4.5±0.5 fold and 5.4±0.5 fold | DNR accumulation behaviour in WBC (WBC [6]): continued to rise; also recorded: continuous increase in drug accumulation | corrected signal of DNR (Fi) (22Rv1 cells [3]; 3.5 μM DNR): 100±37 cps | corrected signal of DNR (Fi) (22Rv1 cells [3]; 7 μM DNR): 290±39 cps | corrected signal of DNR (Fi) (22Rv1 cells [3]; 14 μM DNR): 260±41 cps | fold-increase in DNR accumulation (22Rv1 cells [3]; 35 μM DNR alone for 4000 s (negative control), three successive values, FIG. 14a dotted line): 1.1±0.1 fold and 1.2±0.1 fold | fold-increase in fluorescence (22Rv1 cells [3]; 35 μM DNR only (negative control), FIG. 9a bottom curve): 1.3±0.2 fold and 1.3 fold | corrected signal of DNR (Fi) (22Rv1 cells [3]; 35 μM DNR): 535±92 cps and 530±42 cps | corrected signal of DNR (Fi) (22Rv1 cells [3]; 70 μM DNR): 550±47 cps | corrected signal of DNR (Fi) (22Rv1 cells [3]; 350 μM DNR): 1280±50 cps | fluorescence signal of the DNR (22Rv1 cells [3]; before adding FTC, FIG. 11a solid line): 630±77 | cell viability by trypan blue (22Rv1 cells [7]; single 22Rv1 cell after 35 μM DNR, DEP capture and xenon lamp excitation, FIG. 9c): viable | trypan blue staining (cell membrane integrity) (22Rv1 cells [7]; single 22Rv1 cells after 35 μM DNR or 3 μM OG-PTX in the presence of 40 μM FTC, FIG. 13): no cell staining | trypan blue staining of WBC (WBC [8]): staining by trypan blue

COc1ccc(CCN(C)CCCC(C#N)(c2ccc(OC)c(OC)c2)C(C)C)cc1OC (stereo not shown) [verapamil]
intracellular levels of [3H]-azacytidine (leukemia cells): increase
